{"source": "paper PMC3396595", "about": "“Identification of a Novel Calcium Binding Motif Based on the Detection of Sequence Insertions in the Animal Peroxidase Domain of Bacterial Proteins” (PLoS ONE, 2012)", "biological_target": "PepA-Nter (N-terminal ANP-like domain of PepA, PP_2561) (Pseudomonas putida, UniProt Q88JT6)", "sequence (Q88JT6 1-875 limits assumed)": "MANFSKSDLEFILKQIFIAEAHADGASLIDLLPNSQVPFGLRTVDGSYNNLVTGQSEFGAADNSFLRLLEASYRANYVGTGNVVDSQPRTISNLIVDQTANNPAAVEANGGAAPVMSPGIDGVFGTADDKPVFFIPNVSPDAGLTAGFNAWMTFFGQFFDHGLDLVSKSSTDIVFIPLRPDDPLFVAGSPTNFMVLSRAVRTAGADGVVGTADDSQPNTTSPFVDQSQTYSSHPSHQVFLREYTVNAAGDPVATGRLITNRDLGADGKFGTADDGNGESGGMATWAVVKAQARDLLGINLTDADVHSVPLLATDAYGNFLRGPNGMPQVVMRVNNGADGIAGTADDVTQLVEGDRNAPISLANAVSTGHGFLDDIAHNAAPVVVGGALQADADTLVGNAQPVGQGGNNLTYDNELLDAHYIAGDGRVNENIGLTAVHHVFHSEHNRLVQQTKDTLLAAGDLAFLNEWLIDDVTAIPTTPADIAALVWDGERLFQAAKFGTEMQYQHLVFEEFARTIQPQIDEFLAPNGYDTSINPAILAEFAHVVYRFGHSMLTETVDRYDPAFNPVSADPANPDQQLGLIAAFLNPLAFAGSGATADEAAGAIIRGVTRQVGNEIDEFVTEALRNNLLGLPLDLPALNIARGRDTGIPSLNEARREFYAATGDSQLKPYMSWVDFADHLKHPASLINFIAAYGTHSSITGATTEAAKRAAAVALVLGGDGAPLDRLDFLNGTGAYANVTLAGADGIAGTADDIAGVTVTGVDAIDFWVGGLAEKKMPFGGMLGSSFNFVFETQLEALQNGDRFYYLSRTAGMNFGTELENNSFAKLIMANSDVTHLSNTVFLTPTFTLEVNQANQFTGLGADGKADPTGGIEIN", "experiment": "peroxidase assay, quinoneimine formation at […] nm", "type": "biochemical", "conditions": "heme-reconstituted; electron donor with phenol; H2O2 0.25-45 mM varied; potassium phosphate pH 7.0, 25 °C"}
{"compound": "Cc1c(N)c(=O)n(-c2ccccc2)n1C", "note": "[4-aminoantipyrine]", "values": [{"measurement": "peroxidase assay, quinoneimine formation at 510 nm", "result": "oxidation of 4-aminoantipyrine (same electron donor than the one used in this study)"}]}
